This is an account of results in US20230295234A1, “ANTIMICROBIAL PEPTIDOMIMETICS” (SPEXIS AG, priority 2020, published 2023).

Series [1] deals with human red blood cells (hRBC). In words: Hemolysis of human red blood cells. It counts as cell-based. The conditions noted are these: red cells of human, 1 h. The essentials: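 Percent hemolysis is OD540 of peptide-treated supernatant relative to water-lysed cells. Each peptide was tested at 200 μg/mL against 20% (v/v) washed human erythrocytes. Incubation was 1 h at 37 °C, 300 rpm.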

Series [2] has as its system Escherichia coli ATCC 25922. The conditions noted are these: ATCC 25922. The essentials:
(§1)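 Standardized inocula (0.5 McFarland in saline, then diluted in MHII broth to approximately 5×10^5 CFU/mL) were exposed to two-fold dilution series of each peptide in the presence of polysorbate 80 (0.002% final).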

The subject of series [3] is Klebsiella pneumoniae SSI3010. The following applies: SSI3010. In a few lines: as §1
In series [4] the test system is Escherichia coli MCR-1 Af 45. The conditions noted are these: MCR-1 Af 45. The essentials: as §1

Bridge positions count the residues as written; N and C are the ends. Square brackets hold non-standard residues; d marks the D form. Peptide text beside a SMILES is read from it. Pro(4R-NH2) = N[C@H]1CN[C@H](C(=O)O)C1; Gly(N-2-aminoethyl) = NCCNCC(=O)O; Hyp = O=C(O)[C@@H]1C[C@@H](O)CN1; Gly(N(CH2)3NH2) = NCCCNCC(=O)O; Pen = CC(C)(S)[C@H](N)C(=O)O; dDab = NCC[C@@H](N)C(=O)O; Dab = NCC[C@H](N)C(=O)O; Nlys = NCCCCNCC(=O)O

Consider `CC[C@H](C)[C@H](NC(=O)[C@@H]1C[C@@H](O)CN1C(=O)[C@@H](NC(=O)[C@@H]1C[C@@H](O)CN1C(=O)CNCCCN)C(C)C)C(=O)N[C@H](C(=O)N[C@@H](Cc1ccc(O)cc1)C(=O)N[C@@H]1C(=O)N[C@@H](CC(N)=O)C(=O)N[C@@H](CCCNC(=N)N)C(=O)N[C@@H](CCN)C(=O)N[C@@H]([C@@H](C)O)C(=O)N[C@H](CCN)C(=O)N[C@@H](CCCCN)C(=O)N[C@H](C(=O)N[C@@H](CCN)C(=O)N[C@@H](CCCNC(=N)N)C(=O)N[C@@H](Cc2ccc(O)cc2)C(=O)O)CSSC1(C)C)[C@@H](C)O` [Example 42, Norn-Hyp-Val-Hyp-Ile-Thr-Tyr-Pen-Asn-Arg-Dab-Thr-^DDab-Lys-Cys-Dab-Arg-Tyr] (HELM PEPTIDE1{[NCCCNCC(=O)[*:2]].[Hyp].V.[Hyp].I.T.Y.[Pen].N.R.[Dab].T.[NCC[C@@H](N[*:1])C(=O)[*:2]].K.C.[Dab].R.Y}$PEPTIDE1,PEPTIDE1,8:R3-15:R3$$$V2.0), for which the “Hemolysis at 0.2 g/L” value in series [1] turned out to be 0%. In series [2], the “Escherichia coli ATCC 25922 MIC” value was 0.125 µg/mL. The “Klebsiella pneumoniae SSI3010 MIC” value in series [3] came out at 0.25 µg/mL. In addition, the “Escherichia coli MCR-1 Af 45 MIC” value in series [4] amounted to 0.125 µg/mL.
`CC[C@H](C)[C@H](NC(=O)[C@@H]1C[C@@H](N)CN1C(=O)[C@@H](NC(=O)[C@@H]1C[C@@H](O)CN1C(=O)[C@@H](N)CCCCN)C(C)C)C(=O)N[C@H](C(=O)N[C@@H](Cc1ccc(O)cc1)C(=O)N[C@@H]1C(=O)N[C@@H](CC(N)=O)C(=O)N[C@@H](CCCNC(=N)N)C(=O)N[C@@H](CCN)C(=O)N[C@@H]([C@@H](C)O)C(=O)N[C@H](CCN)C(=O)N[C@@H](CCCCN)C(=O)N[C@H](C(=O)N[C@@H](CCN)C(=O)N[C@@H](CCCNC(=N)N)C(=O)N[C@@H](Cc2ccc(O)cc2)C(=O)O)CSSC1(C)C)[C@@H](C)O` [Example 43, Lys-Hyp-Val-Pro((4R)NH2)-Ile-Thr-Tyr-Pen-Asn-Arg-Dab-Thr-^DDab-Lys-Cys-Dab-Arg-Tyr] (HELM PEPTIDE1{K.[Hyp].V.[N[C@@H]1C[C@@H](C(=O)[*:2])N([*:1])C1].I.T.Y.[Pen].N.R.[Dab].T.[NCC[C@@H](N[*:1])C(=O)[*:2]].K.C.[Dab].R.Y}$PEPTIDE1,PEPTIDE1,8:R3-15:R3$$$V2.0): in series [1], the “Hemolysis at 0.2 g/L” value worked out at 0%. Also, the “Escherichia coli ATCC 25922 MIC” value in series [2] amounted to 0.125 µg/mL. Moreover, the “Klebsiella pneumoniae SSI3010 MIC” value in series [3] stood at 0.125 µg/mL. Further, the “Escherichia coli MCR-1 Af 45 MIC” value in series [4] was 0.125 µg/mL.
`CC[C@H](C)[C@H](NC(=O)[C@@H]1C[C@@H](N)CN1C(=O)[C@@H](NC(=O)[C@@H]1C[C@@H](O)CN1C(=O)CNCCN)C(C)C)C(=O)N[C@H](C(=O)N[C@@H](Cc1ccc(O)cc1)C(=O)N[C@@H]1C(=O)N[C@@H](CC(N)=O)C(=O)N[C@@H](CCCNC(=N)N)C(=O)N[C@@H](CCN)C(=O)N[C@@H]([C@@H](C)O)C(=O)N[C@H](CCN)C(=O)N[C@@H](CCCCN)C(=O)N[C@H](C(=O)N[C@@H](CCN)C(=O)N[C@@H](CCCNC(=N)N)C(=O)N[C@@H](Cc2ccc(O)cc2)C(=O)O)CSSC1(C)C)[C@@H](C)O` [Example 44, Ndab-Hyp-Val-Pro((4R)NH2)-Ile-Thr-Tyr-Pen-Asn-Arg-Dab-Thr-^DDab-Lys-Cys-Dab-Arg-Tyr] (H-[Gly(N-2-aminoethyl)][Hyp]V[Pro(4R-NH2)]ITY[Pen]NR[Dab]T[dDab]KC[Dab]RY-OH; disulfide 8-15): the “Hemolysis at 0.2 g/L” value in series [1] was 0%. Further, the “Escherichia coli ATCC 25922 MIC” value in series [2] amounted to 0.25 µg/mL. The “Klebsiella pneumoniae SSI3010 MIC” value in series [3] stood at 0.25 µg/mL. In series [4], the “Escherichia coli MCR-1 Af 45 MIC” value is 0.125 µg/mL.
As to `CC[C@H](C)[C@H](NC(=O)[C@@H]1C[C@@H](N)CN1C(=O)[C@@H](NC(=O)[C@@H]1C[C@@H](O)CN1C(=O)CNCCCN)C(C)C)C(=O)N[C@H](C(=O)N[C@@H](Cc1ccc(O)cc1)C(=O)N[C@@H]1C(=O)N[C@@H](CC(N)=O)C(=O)N[C@@H](CCCNC(=N)N)C(=O)N[C@@H](CCN)C(=O)N[C@@H]([C@@H](C)O)C(=O)N[C@H](CCN)C(=O)N[C@@H](CCCCN)C(=O)N[C@H](C(=O)N[C@@H](CCN)C(=O)N[C@@H](CCCNC(=N)N)C(=O)N[C@@H](Cc2ccc(O)cc2)C(=O)O)CSSC1(C)C)[C@@H](C)O` [Example 45, Norn-Hyp-Val-Pro((4R)NH2)-Ile-Thr-Tyr-Pen-Asn-Arg-Dab-Thr-^DDab-Lys-Cys-Dab-Arg-Tyr] (H-[Gly(N(CH2)3NH2)][Hyp]V[Pro(4R-NH2)]ITY[Pen]NR[Dab]T[dDab]KC[Dab]RY-OH; disulfide 8-15), in series [1], the “Hemolysis at 0.2 g/L” value is given as 0%. In addition, in series [2], the “Escherichia coli ATCC 25922 MIC” value is 0.0625 µg/mL. In series [3], the “Klebsiella pneumoniae SSI3010 MIC” value amounted to 0.125 µg/mL. The “Escherichia coli MCR-1 Af 45 MIC” value in series [4] was 0.0625 µg/mL.
As to `CC[C@H](C)[C@H](NC(=O)[C@@H]1C[C@@H](N)CN1C(=O)[C@@H](NC(=O)[C@@H]1C[C@@H](O)CN1C(=O)CNCCCCN)C(C)C)C(=O)N[C@H](C(=O)N[C@@H](Cc1ccc(O)cc1)C(=O)N[C@@H]1C(=O)N[C@@H](CC(N)=O)C(=O)N[C@@H](CCCNC(=N)N)C(=O)N[C@@H](CCN)C(=O)N[C@@H]([C@@H](C)O)C(=O)N[C@H](CCN)C(=O)N[C@@H](CCCCN)C(=O)N[C@H](C(=O)N[C@@H](CCN)C(=O)N[C@@H](CCCNC(=N)N)C(=O)N[C@@H](Cc2ccc(O)cc2)C(=O)O)CSSC1(C)C)[C@@H](C)O` [Example 46, Nlys-Hyp-Val-Pro((4R)NH2)-Ile-Thr-Tyr-Pen-Asn-Arg-Dab-Thr-^DDab-Lys-Cys-Dab-Arg-Tyr] (H-[Nlys][Hyp]V[Pro(4R-NH2)]ITY[Pen]NR[Dab]T[dDab]KC[Dab]RY-OH; disulfide 8-15), the “Hemolysis at 0.2 g/L” value in series [1] came out at 0%. In addition, the “Escherichia coli ATCC 25922 MIC” value in series [2] is at most 0.03125 µg/mL. In series [3], the “Klebsiella pneumoniae SSI3010 MIC” value was 0.125 µg/mL. Besides, the “Escherichia coli MCR-1 Af 45 MIC” value in series [4] is at most 0.03125 µg/mL.
On to `CC[C@H](C)[C@H](NC(=O)CN(CCN)C(=O)[C@@H](NC(=O)[C@@H]1C[C@@H](O)CN1C(=O)[C@@H](N)CCCCN)C(C)C)C(=O)N[C@H](C(=O)N[C@@H](Cc1ccc(O)cc1)C(=O)N[C@@H]1C(=O)N[C@@H](CC(N)=O)C(=O)N[C@@H](CCCNC(=N)N)C(=O)N[C@@H](CCN)C(=O)N[C@@H]([C@@H](C)O)C(=O)N[C@H](CCN)C(=O)N[C@@H](CCCCN)C(=O)N[C@H](C(=O)N[C@@H](CCN)C(=O)N[C@@H](CCCNC(=N)N)C(=O)N[C@@H](Cc2ccc(O)cc2)C(=O)O)CSSC1(C)C)[C@@H](C)O` [Example 47, Lys-Hyp-Val-Ndab-Ile-Thr-Tyr-Pen-Asn-Arg-Dab-Thr-^DDab-Lys-Cys-Dab-Arg-Tyr] (HELM PEPTIDE1{K.[Hyp].V.[NCCN(CC(=O)[*:2])[*:1]].I.T.Y.[Pen].N.R.[Dab].T.[NCC[C@@H](N[*:1])C(=O)[*:2]].K.C.[Dab].R.Y}$PEPTIDE1,PEPTIDE1,8:R3-15:R3$$$V2.0), for which, in series [1], the “Hemolysis at 0.2 g/L” value was found to be 0%. In addition, the “Escherichia coli ATCC 25922 MIC” value in series [2] is 0.0625 µg/mL. Further, the “Klebsiella pneumoniae SSI3010 MIC” value in series [3] worked out at 0.25 µg/mL. In series [4], the “Escherichia coli MCR-1 Af 45 MIC” value was at most 0.03125 µg/mL.
